The text below walks through data of patent publication US6670382B2, “Hydroxyformamidine derivatives and medicines containing the same” (Taisho Pharmaceutical Co., Ltd., priority 2000, dated 2003).

Data set [1] has as its system 20-HETE synthase derived from rat kidney microsome. The data set is described as follows: Inhibitory effect of 20-HETE synthase derived from rat kidney microsome. The format is biochemical. As to conditions: SHR rat kidney microsome; for IC50: concentration at which 20-HETE production was inhibited to 50%; for Inhibition (1 µM): inhibition rate of 20-HETE production, subject compound 1 μM, 3H-arachidonic acid, NADPH, 1.5 hours at 37° C., pH 7.4. As to the method: [Inhibitory Effect of 20-HETE Synthase Derived from Rat Kidney Microsome]
Regarding the compounds listed in the Table described above, their inhibitory activities on production of 20-HETE were examined.
This examination was carried out based on the method described in J. Pharmacol. Exp. Ther., Vol. 268, p. 474 (1994).
The subject compound in an amount of 1 μM was added to a 50 mM of 3-morpholinopropanesulfonic acid buffer (MOPS) (pH 7.4), containing 5 mM of magnesium chloride, and 1 mM of ethylenediaminetetraacetic acid (EDTA) disodium salt.
Subsequently, the rat kidney microsome fraction prepared from the kidney of a spontaneously hypertensive rat (male, 6 weeks of age) as an enzyme, [5,6,8,9,11,12,14,15] tritium-arachidonic acid (supplied by Amasham) as a substrate, and NADPH (supplied by Sigma) as a coenzyme were added, and were reacted for 1.5 hours at 37° C.
After the reaction was quenched by adding formic acid (supplied by Wako Pure Chemical Industries Ltd.) to the reaction solution, acetonitrile (final concentration of 50%) was added thereto, and the mixture was allowed to stand for 1.5 hours at room temperature. The amount of 20-HETE production was measured by using a high performance liquid chromatography having a detector for radioactive substances (supplied by Gilson), equipped with an ODS column (Biocyl C18, supplied by Bio-rad).
Setting an amount of 20-HETE production to 100% when no subject compound was added, the inhibition rate (%) was calculated from the amount of 20-HETE production when a subject compound was added.
In addition, setting an amount of 20-HETE production to 100% when no subject compound was added, the concentration of the subject compound at which the production of the 20-HETE was inhibited to 50% when the subject compound is added (IC50 value) was also calculated.

With `CCOCCCOc1ccc(N/C=N/O)cn1` [Comp. 59], the melting point (in general, the temperature of the solid-liquid transition) fell in the range of 99 to 100 °C. In addition, in data set [1], the midpoint of inhibition, the IC50, lay at 4.4 nM and the “Inhibition (1 µM)” value came out at 109.6%.

Compound `CCCCOCCOc1ccc(N/C=N/O)cn1` [Comp. 61] gave a melting point of 113 to 114.5 °C. In data set [1], the midpoint of inhibition, the IC50, lay at 13.1 nM and the “Inhibition (1 µM)” value was 99.8%.

Regarding `CC#CCOc1ccc(N/C=N/O)cn1` [Comp. 65, N-[2-(2-butyn-1-oxy)pyridin-5-yl]-N′-hydroxyformamidine], the melting point is 155.5 to 157 °C. In addition, in data set [1], the IC50 – broadly, the point on the concentration scale where inhibition reaches its midpoint – was found to be 68.2 nM and the “Inhibition (1 µM)” value was found to be 86.9%.

Regarding `COc1ccccc1CCOc1ccc(N/C=N/O)cn1` [Comp. 69], the melting point fell in the range of 159.5 to 161 °C. Besides, in data set [1], half-maximal inhibition (IC50) required 6.5 nM and the “Inhibition (1 µM)” value stood at 102.8%.

`COc1ccccc1COc1ccc(N/C=N/O)cn1` [Comp. 72] came in with a melting point of 146.5 to 147.5 °C. For the same compound, in data set [1], it took 59 nM to reach half-maximal inhibition (IC50) and the “Inhibition (1 µM)” value came to 92.9%.

`O/N=C/Nc1ccc(OCc2cc(F)ccc2F)nc1` [Comp. 73] returned a melting point of 158.5 to 159.5 °C. In data set [1], it took 6.4 nM to reach half-maximal inhibition (IC50) and the “Inhibition (1 µM)” value is recorded as 105.0%.

Turning to `COc1ccc(COc2ccc(N/C=N/O)cn2)cc1` [Comp. 77], the melting point lay in the range of 164.5 to 165.5 °C. In addition, in data set [1], the IC50 turned out to be 3.3 nM and the “Inhibition (1 µM)” value was 100.3%.

As for `COc1cccc(COc2ccc(N/C=N/O)cn2)c1` [Comp. 78], the melting point was in the range of 126 to 127 °C. For the same compound, in data set [1], the IC50 amounted to 4.2 nM and the “Inhibition (1 µM)” value amounted to 100.2%.

`O/N=C/Nc1ccc(OCc2ccc(F)cc2)nc1` [Comp. 80] yielded a melting point of 166.5 to 167.5 °C. In data set [1], the IC50 is 3.9 nM and the “Inhibition (1 µM)” value turned out to be 102.9%.

On to `N#Cc1cccc(COc2ccc(N/C=N/O)cn2)c1` [Comp. 81], for which the melting point is 166.5 to 167 °C. In data set [1], the IC50 was determined as 1.7 nM and the “Inhibition (1 µM)” value was 104.4%.

For `COc1cccc(COc2ccc(N/C=N/O)cn2)c1OC` [Comp. 82], the melting point was in the range of 128.5 to 129 °C. Further, in data set [1], inhibition was half-maximal at 60.1 nM (IC50) and the “Inhibition (1 µM)” value was determined as 104.5%.

For the compound `O/N=C/Nc1ccc(OCC2COCO2)nc1` (stereo not shown) [Comp. 87], the melting point lay within 186.5 to 187 °C. Also, in data set [1], the half-inhibitory concentration (IC50) came to 264 nM and the “Inhibition (1 µM)” value is reported as 87.0%.

As to `O/N=C/Nc1ccc(OCCCn2cccc2)nc1` [Comp. 91], the melting point lay within 140 to 141 °C. In data set [1], the IC50 was 6.4 nM and the “Inhibition (1 µM)” value stood at 103.0%.

With `CSCCOc1ccc(N/C=N/O)cn1` [Comp. 92], the melting point is 111.5 to 112 °C. In data set [1], the IC50 amounted to 71.9 nM and the “Inhibition (1 µM)” value stood at 87.6%.

As for `CSCCCOc1ccc(N/C=N/O)cn1` [Comp. 93], the melting point fell in the range of 109 to 111 °C. In addition, in data set [1], half-maximal inhibition (IC50) was put at 6.6 nM and the “Inhibition (1 µM)” value was determined as 97.4%.

`O/N=C/Nc1ccc(OCCOc2ccccc2)nc1` [Comp. 94] yielded a melting point of 153 to 154 °C. Further, in data set [1], the IC50 was determined as 3.2 nM and the “Inhibition (1 µM)” value was found to be 100.3%.

Turning to `O/N=C/Nc1ccc(OCC2CCCO2)nc1` (stereo not shown) [Comp. 96], the melting point fell in the range of 114 to 115 °C. Besides, in data set [1], 140 nM corresponded to half-maximal inhibition (IC50) and the “Inhibition (1 µM)” value is on record as 92.3%.

Regarding `O/N=C/Nc1ccc(OCC2CCCCO2)nc1` (stereo not shown) [Comp. 97], the melting point was 149.5 to 152.5 °C. In data set [1], the IC50 is 58.1 nM and the “Inhibition (1 µM)” value is given as 85.5%.

In turn, `O/N=C/Nc1ccc(OCCc2cccs2)nc1` [Comp. 98] registered a melting point of 137.5 to 138.5 °C. Further, in data set [1], the IC50 is 4.3 nM and the “Inhibition (1 µM)” value was 100.7%.

For `O/N=C/Nc1ccc(OCCc2ccsc2)nc1` [Comp. 99], the melting point was in the range of 138 to 140 °C. Further, in data set [1], the IC50 came out at 1.9 nM and the “Inhibition (1 µM)” value is recorded as 95.4%.

In the case of `CC(C)Sc1ccc(N/C=N/O)cn1` [Comp. 102], the melting point was 141 to 142 °C. For the same compound, in data set [1], 18.2 nM corresponded to half-maximal inhibition (IC50) and the “Inhibition (1 µM)” value is 74.5%.

In turn, `O/N=C/Nc1ccc(SCc2ccccc2)nc1` [Comp. 104, N-[2-(benzylthio)pyridin-5-yl]-N′-hydroxyformamidine] showed a melting point of 133 to 135 °C. Besides, the “Inhibition (1 µM)” value in data set [1] is on record as 103.6%.

For the compound `OCCSc1ccc(N/C=N/O)cn1` [Comp. 107], the melting point was in the range of 115 to 115.5 °C. Besides, in data set [1], the IC50 stood at 294 nM and the “Inhibition (1 µM)” value was 83.1%.

`O/N=C/Nc1ccc(SC2CCCC2)nc1` [Comp. 109] showed a melting point of 153.5 to 154.5 °C. Also, in data set [1], the IC50 came to 11.5 nM and the “Inhibition (1 µM)” value stood at 82.1%.

For the compound `O/N=C/Nc1ccc(SCc2ccco2)nc1` [Comp. 110], the melting point is 140.5 to 141.5 °C. In data set [1], inhibition was half-maximal at 12.1 nM (IC50) and the “Inhibition (1 µM)” value is listed as 85.7%.

Consider `CCC(C)Sc1ccc(N/C=N/O)cn1` (stereo not shown) [Comp. 111], for which the melting point fell in the range of 125.5 to 127.5 °C. In addition, in data set [1], 33.8 nM corresponded to half-maximal inhibition (IC50) and the “Inhibition (1 µM)” value is reported as 76.8%.

In the case of `CC(C)(C)Sc1ccc(N/C=N/O)cn1` [Comp. 117], the melting point lay in the range of 174.5 to 175 °C. For the same compound, in data set [1], the IC50 came to 435 nM and the “Inhibition (1 µM)” value amounted to 69.3%.

With `OCCCSc1ccc(N/C=N/O)cn1` [Comp. 120], the melting point is 105 to 105.5 °C. For the same compound, in data set [1], half-maximal inhibition (IC50) required 117 nM and the “Inhibition (1 µM)” value amounted to 102.0%.

Take `C#CCOc1ccc(N/C=N/O)cn1` [Comp. 121]: the melting point lay in the range of 143.5 to 144.5 °C. For the same compound, in data set [1], the IC50 stood at 400 nM and the “Inhibition (1 µM)” value turned out to be 99.8%.

In the case of `CN(C)CC(C)(C)COc1ccc(N/C=N/O)cn1` [Comp. 123, N-[2-(3-dimethylamino-2,2-dimethylpropyl-1-oxy)pyridin-5-yl]-N′-hydroxyformamidine], the melting point fell in the range of 74 to 76.5 °C. For the same compound, in data set [1], the IC50 was 0.6 nM and the “Inhibition (1 µM)” value is 97.5%.

As to `CN1CCCC(COc2ccc(N/C=N/O)cn2)C1` (stereo not shown) [Comp. 124], the melting point is 122 to 124 °C. Besides, in data set [1], the IC50 turned out to be 142 nM and the “Inhibition (1 µM)” value is 92.6%.

In turn, `CCN(CC)CCSc1ccc(N/C=N/O)cn1` [Comp. 127] returned a melting point of 124.5 to 125.5 °C. Also, the IC50 in data set [1] was determined as 330 nM.

In the case of `CN1CCC(CCOc2ccc(N/C=N/O)cn2)CC1` [Comp. 128], the melting point lay in the range of 131 to 133 °C. Moreover, half-maximal inhibition in data set [1] (IC50) was put at 312 nM.

Compound `CN(C)CCCOc1ccc(N/C=N/O)cn1` [Comp. 132] displayed a melting point of 108 to 112 °C. Besides, half-maximal inhibition in data set [1] (IC50) was put at 566 nM.

Take `CN(C)CCCCCCOc1ccc(N/C=N/O)cn1` [Comp. 133]: the melting point lay within 110 to 111.5 °C. The same compound registered an IC50 in data set [1] of 53.6 nM.
